Measured values taken from patent publication US20190359653A1, “SELECTIVE PEPTIDE INHIBITORS OF FRIZZLED” (Genentech, Inc., priority 2016, published 2019).
Like-named read-outs stand apart in the source and are kept apart here.

Assays:
[1] = tested on: Wnt3a-mediated stabilization of β-catenin in mouse L cells; experiment: in-cell western of β-catenin protein in L cells treated with Wnt3a; assay type: cell-based
Experimental: DMSO controls were performed in parallel. Following treatment, the L-cells were fixed, permeabilized, probed with fluorescently labeled anti-β-catenin antibodies, and observed via in-cell western assay (i.e., as described in Hannoush, R. N. (2008) PLoS One 3, e3498) to assess β-catenin protein levels. The values in Table 7 are averages of at least 3 independent replicates, ±standard deviation.

Herceptin = experiment: spot phage ELISA against Herceptin (off-target); assay type: binding; conditions: for SIGNAL: NOISE RATIO HERCEPTIN: spot phage ELISA signal against Herceptin over ELISA signal against BSA, Tables 3 and 4; for HERCEPTIN S/W: signal minus noise (BSA); for HERCEPTIN S/W / HERCEPTIN S/N: Table 5; for HERCEPTIN S/N: signal to noise ratio
Experimental: Phage pools of linear peptide libraries (Stanger, K. et al. Allosteric peptides bind a caspase zymogen and mediate caspase tetramerization. Nat Chem Biol 8, 655-660 (2012)) were cycled through rounds of binding selections with hFZD7 CRD-Fc following standard protocols (Tonikian et al. (2007) Nat Protoc 2, 1368-1386). Herceptin (10 μM) was included in sorting solution to block potential Fc binders during all rounds of sorting. After four rounds of binding selection, individual phage clones were analyzed in a high-throughput spot phage ELISA using plate-immobilized FZD7 CRD-Fc as target or off-target for specificity test (hFZD8 CRD-Fc and Herceptin). To measure off-target affinity, duplicate phage particle were assayed against BSA to measure non-specific binding. Clones with a phage-binding signal >0.5 and signal-to-noise ratio >10 were considered to be positive clones and were subjected to DNA sequence analysis. General data handling was done using Microsoft Excel 2010 unless otherwise noted.
In order to investigate the role of FZD7 in intestinal stem cell function, experiments were performed to identify ligands that selectively bind FZD7 CRD. A naïve linear peptide library (4-16 amino acids in length) and a cyclic peptide library were screened via phage display against FZD7 CRD-Fc. Peptides found to bind FZD7 CRD-Fc were then screened via spot phage ELISA against FZD7 CRD-Fc, FZD8 CRD-Fc, and Herceptin to identify candidates that bind FZD7 CRD but not FZD8 CRD or herceptin. The amino acid sequences of candidate FZD7 CRD-binding linear peptides are shown in Table 3 below, and the amino acid sequences of candidate FZD7 CRD-binding cyclic peptides are shown in Table 4.
Briefly, sixty Fz7-21-derived peptides (see Table 5), each containing at least one random alanine and/or valine/and/or aspartic acid and/or serine substitution, were generated and screened via spot phage ELISA (i.e., as described above) against FZD7 CRD-Fc and Herceptin.

[2] = tested on: Wnt3a-mediated β-catenin signaling in HEK293-TB cells; assay type: cell-based; conditions: for HEK293S-TB % Remaining Activity: measured at 100 μM peptide; for IC50 compared with dFz7-21: text to Table 17
[3] = β-catenin by immunofluorescence, Wnt3a 2.5 nM, 5 hours, mean ± standard deviation
[4] = […], mWnt3a 50 ng/mL, 6 hours, mean ± standard deviation, read-out: HEK293S-TB IC50

Substance | SIGNAL: NOISE RATIO HERCEPTIN (Herceptin) | HERCEPTIN S/W (Herceptin) | HERCEPTIN S/N (Herceptin) | also measured
FDFCSVMPQFIYCPGD [Fz7-20] | 1.14 |  |  | L CELLS % Remaining Activity ([1]; measured at 100 μM peptide): 23.68 ± 4.40%; IC50 [1, 3]: 15.2 ± 10.8 µM; IC50 [2, 4]: 20.8 ± 1.61 µM; HEK293S-TB % Remaining Activity ([2]; mean ± standard deviation): 9.78 ± 0.53%
ISLIEAMIALDRVF [Fz7-06] | 1.1 |  |  | L CELLS % Remaining Activity ([1]; measured at 100 μM peptide): 174.95%; L CELLS IC50 (μM) [1, 3]: n. i.; IC50 [2, 4]: 10.5 ± 0.56 µM; HEK293S-TB % Remaining Activity ([2]; mean ± standard deviation): 4.70 ± 2.07%
YEHLHDLMDLIRPW [Fz7-07] | 1.2 |  |  | L CELLS % Remaining Activity ([1]; measured at 100 μM peptide): 67.20 ± 10.22%; IC50 [1, 3]: > 100 µM; IC50 [2, 4]: > 100 µM; HEK293S-TB % Remaining Activity ([2]; mean ± standard deviation): 46.04 ± 6.94%
LPSDNLEFWCHVMY [Fz7-21N] |  |  |  | L CELLS % Remaining Activity ([1]; measured at 11.11 μM of peptide): 59.77^G ± 6.12%; Wnt3a-mediated stabilization of β-catenin ([1]; mouse L cells): blocked; IC50 [1, 3]: 0.18 ± 0.12 µM; HEK293S-TB % Remaining Activity ([2]; mean ± standard deviation): 5.51 ± 0.13%; IC50 ([2]; read-out: IC50, Wnt3a-stimulated β-catenin signaling): 0.1 µM
IWFKGRFVEFSSLV [Fz7-17] | 1.1 |  |  | L CELLS % Remaining Activity ([1]; measured at 100 μM peptide): 38.20 ± 0.06%; IC50 [1, 3]: ~35 µM; IC50 [2, 4]: 34.77 ± 0.34 µM; HEK293S-TB % Remaining Activity ([2]; mean ± standard deviation): 4.59 ± 1.30%
63 (VPADDLASWCHVMY) [compound 63] |  | 0.0 | 1.2 | 
32 (SSDFSGCLSWCDLIFG) [compound 32] | 1.22 |  |  | 
47 (VASDDLEAWCHVMY) [compound 47] |  | 0.0 | 1.4 | 
64 (APADDLEFWCHVVY) [compound 64] |  | 0.0 | 1.4 | 
31 (FWFDFWFG) [compound 31] | 4.1 |  |  | 
35 (TSDFSWCLSWCDLIFW) [compound 35] | 1.19 |  |  | 
29 (ERRVCYPWFEVSQP) [compound 29] | 1.3 |  |  | 
56 (APSDDLAAWCHVVY) [compound 56] |  | 0.0 | 1.2 | 
58 (VASDDLEFWCHVMY) [compound 58] |  | 0.0 | 1.3 | 
86 (VASDDLASWCHVVY) [compound 86] |  | 0.0 | 1.2 | 
75 (APSDDLEAWCDVMY) [compound 75] |  | 0.0 | 1.3 | 
14 (DTDLLQWCLWFT) [compound 14] | 1.2 |  |  | 
87 (AAADDVASWCHVMY) [compound 87] |  | 0.0 | 1.3 | 
45 (APADDLEAWCHVMY) [compound 45] |  | 0.0 | 1.2 | 
9 (ACSYVIDLWNLCLR) [compound 9] | 1.3 |  |  | 

Substance | SIGNAL: NOISE RATIO HERCEPTIN (Herceptin) | HERCEPTIN S/W (Herceptin) | HERCEPTIN S/N (Herceptin) | also measured
77 (AASDDLAFWCHVMY) [compound 77] |  | 0.0 | 1.1 | 
17 (GDFWPGSLLWEILV) [compound 17] | 1.2 |  |  | 
62 (VASDDLASWCHAMY) [compound 62] |  | 0.0 | 1.3 | 
20 (FLPDQHSHLFLPWGEP) [compound 20] | 1.1 |  |  | 
24 (NAFWRDQCLEWFIICL) [compound 24] | 1.2 |  |  | 
22 (VFVPFSELTSLC) [compound 22] | 1.1 |  |  | 
53 (LPSDDLESWCHVMY) [compound 53] |  | 0.0 | 1.2 | 
85 (PPADDLAFWCDVMY) [compound 85] |  | 0.0 | 1.1 | 
88 (VAADDLAFWCDVMY) [compound 88] |  | 0.0 | 1.2 | 
74 (APADDLAFWCHVVY) [compound 74] |  | 0.0 | 1.3 | 
80 (AAADDLAFWCHVMY) [compound 80] |  | 0.0 | 1.4 | 
91 (APSDDLAFWCDVMY) [compound 91] |  | 0.0 | 0.7 | 
37 (FDFCSVMPHFIYCPGD) [compound 37] | 1.10 |  |  | 
60 (LAADDLESWCHVMY) [compound 60] |  | 0.0 | 1.2 | 
71 (APSDDLASWCHVMY) [compound 71] |  | 0.0 | 1.1 | 
38 (HLSDVFCSDWCDLVFW) [compound 38] | 1.14 |  |  | 
65 (VPSDDLAFWCHVMY) [compound 65] |  | 0.0 | 1.3 | 
90 (APADDLAFWCDVMY) [compound 90] |  | 0.0 | 0.9 | 
6 (DTDLHQWCLWFT) [compound 6] | 1.1 |  |  | 
27 (NPPPECFLSK) [compound 27] | 1.2 |  |  | 

Substance | SIGNAL: NOISE RATIO HERCEPTIN (Herceptin) | HERCEPTIN S/W (Herceptin) | HERCEPTIN S/N (Herceptin) | also measured
95 (VPSDDLEFWCAVMY) [compound 95] |  | 0.0 | 1.2 | 
79 (LPSADLESWCHVMY) [compound 79] |  | 0.0 | 1.4 | 
84 (LPADDLAAWCHVMY) [compound 84] |  | 0.0 | 1.4 | 
2 (TYFDDICNLILPWANP) [compound 2] | 1.2 |  |  | 
78 (VPADDLASWCDVMY) [compound 78] |  | 0.1 | 1.9 | 
81 (LASDDLEFWCHVMY) [compound 81] |  | 0.0 | 1.2 | 
67 (VPADDLAFWCHVMY) [compound 67] |  | 0.0 | 1.3 | 
97 (APSDDLAFWCHVVY) [compound 97] |  | 0.1 | 2.1 | 
25 (EHDLLLRAMNSFVLIF) [compound 25] | 1.4 |  |  | 
SDDXEFWCHVMY [dFz7-21Δ2.L6Hof] |  |  |  | IC50 compared with dFz7-21 [2]: comparable to that of dFz7-21
76 (VPSDDLEAWCDVMY) [compound 76] |  | 0.0 | 1.3 | 
SDDLEFWCHVMY [dFz7-21-Δ2] |  |  |  | effect of N-terminal truncation on dFz7-21 activity ([2]; lacking the 2 N-terminal residues): did not interfere; IC50 compared with dFz7-21 [2]: comparable to that of dFz7-21
83 (VPSADLETWCHVMY) [compound 83] |  | 0.0 | 1.4 | 
98 (AAADDLAAWCHVVY) [compound 98] |  | 0.1 | 2.2 | 
51 (APADDLAFWCHVMY) [compound 51] |  | 0.0 | 1.3 | 
48 (AAADDLEFWCHVMY) [compound 48] |  | 0.0 | 1.2 | 
73 (APSDDLAAWCHVMY) [compound 73] |  | 0.0 | 1.3 | 
59 (AAADDLEAWCAVMY) [compound 59] |  | 0.0 | 1.2 | 
